Test results reported in patent US20260092054A1, “FUSED RING COMPOUND AND PHARMACEUTICAL CONTAINING SAME” (KAKEN PHARMACEUTICAL CO., LTD., priority 2022, published 2026).

What was measured:
human STAT6/pIL-4Rα = biological target: T1, human STAT6/pIL-4Rα (Homo sapiens, UniProt P42226); experiment: Binding inhibitory activity between human STAT6/pIL-4Rα by fluorescence polarization method; settings: rhSTAT6 (123-658) / FAM-pIL-4Rα peptide
T1 construct: histidine tag
T1 sequence (P42226 123-658): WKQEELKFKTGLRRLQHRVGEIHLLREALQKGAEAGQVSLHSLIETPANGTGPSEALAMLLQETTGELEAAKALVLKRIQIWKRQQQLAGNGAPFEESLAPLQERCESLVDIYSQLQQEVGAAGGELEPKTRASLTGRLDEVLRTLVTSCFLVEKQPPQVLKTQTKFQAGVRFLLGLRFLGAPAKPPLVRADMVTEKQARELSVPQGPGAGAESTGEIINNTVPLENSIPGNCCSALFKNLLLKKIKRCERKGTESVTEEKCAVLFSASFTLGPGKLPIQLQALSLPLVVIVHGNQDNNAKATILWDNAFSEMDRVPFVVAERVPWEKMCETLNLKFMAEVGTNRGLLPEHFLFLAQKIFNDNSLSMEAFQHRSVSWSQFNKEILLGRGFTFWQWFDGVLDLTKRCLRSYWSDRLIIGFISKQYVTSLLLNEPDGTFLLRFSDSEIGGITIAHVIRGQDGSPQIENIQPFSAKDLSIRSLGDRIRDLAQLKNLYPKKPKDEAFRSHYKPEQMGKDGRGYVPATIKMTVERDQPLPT
How it was run: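 His-tagged human STAT6 (residues 123–658, E. coli-expressed) was preincubated with compound for 30 min at RT in the dark, in buffer e.g. 50 mM NaCl, 10 mM HEPES pH 7.0, 1 mM DTT, 1 mM EDTA, 0.01% NP-40. FAM-pIL-4Rα peptide was then added for 30 min. Fluorescence polarisation was read at 485/535 nm, with IC50 interpolated linearly between two points flanking 50%.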

human STAT6 = experiment: Human STAT6 dependent reporter activity (IL-4 stimulated STAT6 reporter assay using STAT6-HEK293 cells); type: cell-based; settings: IL-4 stimulation, luciferase activity; for inhibition at 0.1 µM / inhibition at 1 µM: Homo sapiens, read-out: Inhibition rate (%)

SMILES | IC50 (human STAT6/pIL-4Rα) | Inhibition rate (%) (human STAT6; compound 0.1 μmol/L) | Inhibition rate (%) (human STAT6; compound 1 μmol/L) | inhibition at 0.1 µM (human STAT6; compound 0.1 μmol/L) | inhibition at 1 µM (human STAT6; compound 1 μmol/L)
CNC(=O)c1cccc(NC(=O)c2cc(C(F)(F)F)cc3cc(-c4ccc(-n5cnn(C)c5=O)cc4)n(CCOC)c23)c1 [Ex. 43] | 250 nM |  |  | 93% | 100%
Cc1nn(C)c(=O)n1-c1ccc(-c2cc3ccnc(C(=O)Nc4cccc(C(N)=O)c4F)c3n2C)cc1 [Ex. 109] | 430 nM |  |  | 62% | 
COCCn1c(-c2ccc(-n3c(C)nn(C)c3=O)cc2)cc2ccnc(C(=O)Nc3cccc(C(=O)Nc4cccc(OC)n4)c3)c21 [Ex. 197] | 250 nM |  |  | 73% | 
COCCn1c(-c2ccc(-n3c(C)nn(C)c3=O)cc2)cc2cc(C(F)(F)F)cc(C(=O)Nc3cccc(C(=O)Nc4cc(C#N)n(C)n4)c3)c21 [Ex. 179] | 320 nM |  |  | 93% | 
Cc1nn(C)c(=O)n1-c1ccc(-c2cc3ccnc(C(=O)Nc4cccc(C(N)=O)c4)c3n2C)cc1 [Ex. 107] | 290 nM |  |  | 67% | 
CCn1c(-c2ccc(-n3c(C)nn(C)c3=O)cc2)cc2nccc(C(=O)Nc3ccc(F)c(C(N)=O)c3)c21 [Ex. 57] | 490 nM |  |  | 89% | 100%
CCn1c(-c2ccc(-n3c(C)nn(C)c3=O)cc2)cc2ccnc(C(=O)Nc3ccc(F)c(C(=O)NCC#N)c3)c21 [Ex. 168] | 350 nM |  |  | 60% | 99%
CCn1c(-c2ccc(-n3nccn3)cc2)nc2cc(Br)cc(C(=O)Nc3cccc(C(N)=O)c3)c21 [Ex. 6] | 1140 nM |  |  | -1% | 52%
CCn1c(-c2ccc(-n3c(C)nn(C)c3=O)cc2)cc2ccnc(C(=O)Nc3ccc(F)c(C(=O)Nc4cc(C)cn(C)c4=O)c3)c21 [Ex. 194] | 420 nM |  |  | 68% | 98%
COCCn1c(-c2ccc(-n3c(C)nn(C)c3=O)cc2)cc2cc(C(F)(F)F)cc(C(=O)Nc3cccc(C(=O)Nc4cc(Cl)n(C)n4)c3)c21 [Ex. 176] | 280 nM |  |  | 93% | 
Cc1nn(C)c(=O)n1-c1ccc(-c2cc3ccnc(C(=O)Nc4cccc(C(N)=O)c4F)c3n2CC2(C#N)CC2)cc1 [Ex. 123] | 500 nM |  |  | 40% | 96%
CCn1c(-c2ccc(-n3c(C)nn(C)c3=O)cc2)cc2ccnc(C(=O)Nc3cccc(C(=O)Nc4ccn(C)n4)c3)c21 [Ex. 201] | 310 nM |  |  | 99% | 
CCn1c(-c2ccc(-n3c(C)nn(C)c3=O)cc2F)cc2ccnc(C(=O)Nc3cccc(C(N)=O)c3F)c21 [Ex. 98] | 310 nM |  |  | 60% | 100%
COCCn1c(-c2ccc(-n3c(C)nn(C)c3=O)cc2)cc2ccnc(C(=O)Nc3ccc(F)c(C(N)=O)c3)c21 [Ex. 27] | 350 nM |  |  | 52% | 96%
Cc1nn(C)c(=O)n1-c1ccc(-c2cc3cc(C(F)(F)F)nc(C(=O)Nc4ccc(F)c(C(N)=O)c4)c3n2C)cc1 [Ex. 92] | 230 nM |  |  | 74% | 99%
CCn1c(-c2ccc(-n3c(C)nn(C)c3=O)cc2)cc2nc(C(F)(F)F)cc(C(=O)Nc3ccc(F)c(C(N)=O)c3)c21 [Ex. 74] | 480 nM |  |  | 21% | 91%
CCn1c(-c2ccc(N3CCOCC3=O)cc2)cc2ccnc(C(=O)Nc3ccc(F)c(C(=O)NCC#N)c3)c21 [Ex. 150] | 240 nM |  |  | 38% | 89%
COCCn1c(-c2ccc(-n3c(C)nn(C)c3=O)cc2)cc2cc(C(F)(F)F)cc(C(=O)Nc3ccc(C)nc3)c21 [Ex. 73] | 370 nM |  |  | 72% | 100%
COCCn1c(-c2ccc(-n3c(C)nn(C)c3=O)cc2)cc2cc(C(F)(F)F)cc(C(=O)Nc3ccnnc3)c21 [Ex. 88] | 420 nM |  |  | 9% | 76%
CCn1c(-c2ccc(-n3c(C)nn(C)c3=O)cc2)cc2ccnc(C(=O)Nc3cccc(C(=O)Nc4ccc(C)n(C)c4=O)c3)c21 [Ex. 187] | 340 nM |  |  | 88% | 
CCn1c(-c2ccc(-n3c(C)nn(C)c3=O)cc2)cc2ccnc(C(=O)Nc3cccc(C(=O)Nc4cn(C)c(=O)n(C)c4=O)c3)c21 [Ex. 166] | 350 nM |  |  | 76% | 99%
CCn1c(-c2ccc(-n3cnn(C)c3=O)cc2)cc2ccnc(C(=O)Nc3ccc(F)c(C(N)=O)c3)c21 [Ex. 25] | 280 nM |  |  | 64% | 97%
CCn1c(-c2ccc(-n3c(C)nn(C)c3=O)cc2)cc2ccnc(C(=O)Nc3ccc(F)c(C(N)=O)c3)c21 [Ex. 21] | 380 nM |  |  | 73% | 98%
COCCn1c(-c2ccc(-n3c(C)nn(C)c3=O)cc2)cc2cc(C(F)(F)F)cc(C(=O)Nc3cccc(C(=O)Nc4ccn(C5CC5)n4)c3)c21 [Ex. 178] | 280 nM |  |  | 100% | 

More lines, main results first:

IC50 (human STAT6/pIL-4Rα) | SMILES | Inhibition rate (%) (human STAT6; compound 0.1 μmol/L) | Inhibition rate (%) (human STAT6; compound 1 μmol/L) | inhibition at 0.1 µM (human STAT6; compound 0.1 μmol/L) | inhibition at 1 µM (human STAT6; compound 1 μmol/L)
250 nM | CCn1c(-c2ccc(-n3cnn(C)c3=O)cc2)cc2cc(C(F)(F)F)cc(C(=O)Nc3ccc(F)c(C(N)=O)c3)c21 [Ex. 45] | 63% | 100% |  | 
320 nM | CCn1c(-c2ccc(-n3c(C)nn(C)c3=O)cc2)cc2ccnc(C(=O)Nc3cccc(C(N)=O)c3F)c21 [Ex. 22] |  |  | 89% | 99%
280 nM | CCn1c(-c2ccc(-n3c(C)nn(C)c3=O)nc2)cc2cccc(C(=O)Nc3cccc(C(N)=O)c3F)c21 [Ex. 145] |  |  | 53% | 97%
410 nM | CCn1c(-c2ccc(N3C(=O)C(C)CC3C)cc2)cc2cc(C(F)(F)F)cc(C(=O)Nc3ccc(F)c(C(N)=O)c3)c21 (stereo not drawn) [Ex. 160] |  |  | 93% | 100%
290 nM | COCCn1c(-c2ccc(-n3c(C)nn(C)c3=O)cc2)cc2cc(C(F)(F)F)nc(C(=O)Nc3cccc(C(N)=O)c3F)c21 [Ex. 97] |  |  | 89% | 
870 nM | CCn1c(-c2ccc(N3C(=O)C(C)CC3C)cc2)cc2cc(C(F)(F)F)cc(C(=O)Nc3cccc(C(N)=O)c3F)c21 (stereo not drawn) [Ex. 161] |  |  | 86% | 99%
240 nM | CCn1c(-c2ccc(-n3c(C)nn(C)c3=O)cc2)cc2cc(C(F)(F)F)nc(C(=O)Nc3ccc(F)c(C(N)=O)c3)c21 [Ex. 23] |  |  | 86% | 100%
380 nM | CCn1c(-c2ccc(-n3cnn(C)c3=O)cc2)cc2ccnc(C(=O)Nc3cccc(C(N)=O)c3F)c21 [Ex. 99] |  |  | 51% | 95%
520 nM | COCCn1c(-c2ccc(N3C(=O)C(C)CC3C)cc2)cc2cc(C(F)(F)F)nc(C(=O)Nc3cccc(C(N)=O)c3)c21 (stereo not drawn) [Ex. 132] |  |  | 70% | 96%
260 nM | Cc1nn(C)c(=O)n1-c1ccc(-c2cc3cc(C(F)(F)F)cc(C(=O)Nc4cccc(C(N)=O)c4F)c3n2CC2(C#N)CC2)cc1 [Ex. 125] |  |  | 52% | 99%
280 nM | CCn1c(-c2ccc(-n3c(C(F)F)nn(C)c3=O)cc2)cc2cc(C(F)(F)F)cc(C(=O)Nc3ccc(F)c(C(N)=O)c3)c21 [Ex. 154] |  |  | 52% | 99%
360 nM | CCn1c(-c2ccc(-n3c(C)nn(C)c3=O)cn2)cc2cc(C(F)(F)F)cc(C(=O)Nc3cccc(C(N)=O)c3F)c21 [Ex. 19] |  |  | 42% | 98%
590 nM | CCn1c(-c2ccc(-n3c(C)nn(C)c3=O)cc2)cc2c(F)ccc(C(=O)Nc3cccc(C(N)=O)c3F)c21 [Ex. 77] |  |  | 73% | 99%
240 nM | COCCn1c(-c2ccc(-n3c(C)nn(C)c3=O)cc2)cc2cc(C(F)(F)F)cc(C(=O)Nc3ccc(F)c(C(N)=O)c3)c21 [Ex. 16] |  |  | 72% | 100%
350 nM | CCn1c(-c2ccc(-n3c(C)nn(C)c3=O)cc2)cc2cccc(C(=O)Nc3ccc(F)c(C(N)=O)c3)c21 [Ex. 17] |  |  | 81% | 99%
760 nM | COCCn1c(-c2ccc(-n3c(C)nn(C)c3=O)cc2)cc2cc(C(F)(F)F)cc(C(=O)Nc3cccnc3OC)c21 [Ex. 70] |  |  | -6% | 45%
750 nM | CCn1c(-c2ccc(N3CCCC3=O)cc2)cc2cc(C(F)(F)F)cc(C(=O)Nc3ccc(F)c(C(N)=O)c3)c21 [Ex. 146] |  |  | 55% | 87%
400 nM | CCn1c(-c2ccc(-n3c(C)nn(C)c3=O)cc2)cc2cc(C(F)(F)F)cc(C(=O)Nc3cccc(C(=O)NCC(=O)N(C)C)c3)c21 [Ex. 170] |  |  | 49% | 99%
